Assay results: patent US10669235B2, “Indole derivatives and their use as protein kinase inhibitors” (RESPIVERT LIMITED, priority 2016, dated 2020)
Where a name gives a salt, the structure may show the parent alone. Read-outs that look alike come from different tables or passages of the source. Blank lines part the entries; values can stand above or below the compound they belong to.

Key:
PDGFRβ [1] = target: T1, PDGFRβ (Homo sapiens (Human), UniProt P09619); assay: PDGF-BB induced phosphorylation of PDGFRβ in fibroblasts (MRC5, HTRF); assay type: cell-based; details: MRC5 cells, PDGFBB stimulation; read-out: PDGFBB-induced PDGFRβ phosphorylation in MRC5 cells (IC50)
PDGFRβ [2] = target: T1, PDGFRβ; assay: PDGFRβ enzyme inhibition (ADP-Glo assay); assay type: biochemical
MRC5 cells = assay: Cell viability assay in MRC5 cells (MTT)
PAMPA permeability assay = assay type: in vitro ADME; details: pH 7, PAMPA; for Papp at 5 hr, 10 μM: pH 7, 10 μM
[3] = Pharmacokinetic measurements in rats (i.v., i.t., oral); assay type: in vivo; details: rat; for concentration at 0.1 h: read-out: lung concentration (nM) at time 0.1 h; for concentration at 1.5 h: read-out: lung concentration (nM) at time 1.5 h; for concentration at 6 h: read-out: lung concentration (nM) at time 6 h; for concentration at 24 h: read-out: lung concentration (nM) at time 24 h
[4] = i.t. dose 0.1 (nintedanib 0.42)
[5] = i.t. dose 0.1 (nintedanib 0.42), 6 h
[6] = i.t. dose 0.1 (nintedanib 0.42), 24 h
[7] = i.v. dose 0.1 (nintedanib 0.42)
[8] = i.v. dose 0.1 (nintedanib 0.42), 6 h
[9] = i.v. dose 0.1 (nintedanib 0.42), 24 h
[10] = mean, n = 2 (nintedanib n = 34)

T1 sequence (P09619 33-1106): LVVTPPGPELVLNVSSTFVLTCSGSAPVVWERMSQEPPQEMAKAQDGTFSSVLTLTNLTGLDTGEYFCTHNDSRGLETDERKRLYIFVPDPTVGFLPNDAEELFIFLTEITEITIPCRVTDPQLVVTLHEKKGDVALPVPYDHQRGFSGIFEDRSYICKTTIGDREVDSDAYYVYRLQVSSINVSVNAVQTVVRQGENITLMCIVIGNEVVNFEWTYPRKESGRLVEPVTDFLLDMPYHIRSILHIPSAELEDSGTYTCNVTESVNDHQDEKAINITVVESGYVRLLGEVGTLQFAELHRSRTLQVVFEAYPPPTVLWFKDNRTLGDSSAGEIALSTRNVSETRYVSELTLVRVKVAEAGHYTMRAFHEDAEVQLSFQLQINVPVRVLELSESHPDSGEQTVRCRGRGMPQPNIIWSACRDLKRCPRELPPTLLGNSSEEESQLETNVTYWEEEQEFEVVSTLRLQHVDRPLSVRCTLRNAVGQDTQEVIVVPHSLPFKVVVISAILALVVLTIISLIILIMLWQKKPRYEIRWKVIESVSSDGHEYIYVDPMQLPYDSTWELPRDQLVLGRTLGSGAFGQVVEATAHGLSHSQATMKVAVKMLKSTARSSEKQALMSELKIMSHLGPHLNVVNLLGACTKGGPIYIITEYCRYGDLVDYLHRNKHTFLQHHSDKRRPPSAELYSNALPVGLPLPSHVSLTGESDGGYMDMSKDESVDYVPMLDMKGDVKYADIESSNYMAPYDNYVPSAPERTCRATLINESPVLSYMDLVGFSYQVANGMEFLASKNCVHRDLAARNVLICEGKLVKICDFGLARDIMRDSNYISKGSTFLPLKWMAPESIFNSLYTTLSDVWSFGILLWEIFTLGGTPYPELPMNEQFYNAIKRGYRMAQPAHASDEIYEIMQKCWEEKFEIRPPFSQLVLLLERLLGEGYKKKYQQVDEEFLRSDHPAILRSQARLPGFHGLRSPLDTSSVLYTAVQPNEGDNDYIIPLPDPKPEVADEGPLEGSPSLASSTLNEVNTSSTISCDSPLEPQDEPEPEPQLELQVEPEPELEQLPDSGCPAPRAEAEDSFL

SMILES: COC(=O)c1cc2c(cc1C)/C(=C(/Nc1ccc(C(=O)NCCN(C)C)cc1)c1ccccc1)C(=O)N2 [Example 2, (Z)-Methyl 3-(((4-((2-(dimethylamino)ethyl)carbamoyl)phenyl)amino)(phenyl)methylene)-5-methyl-2-oxoindoline-6-carboxylate, formate]
IC50 (PDGFRβ [1]): 36.7 nM | Ki (PDGFRβ [2]): 11.1 nM | Cell viability at 100 nM (%) (MRC5 cells): 94% | Cell viability at 300 nM (%) (MRC5 cells): 91% | Cell viability at 1000 nM (%) (MRC5 cells): 68.5%

SMILES: COC(=O)c1cc2c(cc1C)/C(=C(/Nc1ccc(C(=O)NCCN3CCC(N(C)C)CC3)cc1)c1ccccc1)C(=O)N2 [Example 6, (Z)-Methyl 3-(((4-((2-(4-(dimethylamino)piperidin-1-yl)ethyl)carbamoyl)phenyl)amino) (phenyl)methylene)-5-methyl-2-oxoindoline-6-carboxylate, formate]
IC50 (PDGFRβ [1]): 13.2 nM | recovery at 5 hr, 10 μM (PAMPA permeability assay): 56.5% | Papp at 5 hr, 10 μM (PAMPA permeability assay): 0.012 ×10⁻⁶ cm/s | Lung conc i.t./i.v. Ratio at time 0.1 h [3]: 9.8 | Lung conc i.t./i.v. Ratio at time 1.5 h [3]: 8.0 | Lung conc i.t./i.v. Ratio at time 6 h ([3]; 6 h): 8.3 | Lung conc i.t./i.v. Ratio at time 24 h ([3]; 24 h): 7.7 | BAL % administered dose at time 0.1 h [3, 4]: 14% | lung/plasma conc ratio at time 0.1 h [3, 4]: 472 | concentration at 0.1 h [3, 4]: 9826 nM | BAL % administered dose at time 1.5 h [3, 4]: 0.9% | lung/plasma conc ratio at time 1.5 h [3, 4]: >4452 | concentration at 1.5 h [3, 4]: 7568 nM | BAL % administered dose at time 6 h [3, 5]: 1.1% | lung/plasma conc ratio at time 6 h [3, 5]: >4597 | concentration at 6 h [3, 5]: 7815 nM | BAL % administered dose at time 24 h [3, 6]: 0.9% | lung/plasma conc ratio at time 24 h [3, 6]: >3787 | concentration at 24 h [3, 6]: 6438 nM | BAL % administered dose at time 0.1 h [3, 7]: BQL | lung/plasma ratio at time 0.1 h [3, 7]: 77 | concentration at 0.1 h [3, 7]: 1002 nM | BAL % administered dose at time 1.5 h [3, 7]: BQL | lung/plasma ratio at time 1.5 h [3, 7]: >558 | concentration at 1.5 h [3, 7]: 949 nM | BAL % administered dose at time 6 h [3, 8]: BQL | lung/plasma ratio at time 6 h [3, 8]: >552 | concentration at 6 h [3, 8]: 939 nM | BAL % administered dose at time 24 h [3, 9]: BQL | lung/plasma ratio at time 24 h [3, 9]: >492 | concentration at 24 h [3, 9]: 837 nM | Cell viability at 100 nM (%) (MRC5 cells): 102.3% | Cell viability at 300 nM (%) (MRC5 cells): 98.9% | Cell viability at 1000 nM (%) (MRC5 cells): 91.2%

SMILES: COC(=O)c1cc2c(cc1C)/C(=C(/Nc1ccc(C(=O)NCC(=O)N3CCN(CCO)CC3)cc1)c1ccccc1)C(=O)N2 [Example 7, (Z)-Methyl 3-(((4-((2-(4-(2-hydroxyethyl)piperazin-1-yl)-2-oxoethyl)carbamoyl)phenyl)amino) (phenyl)methylene)-5-methyl-2-oxoindoline-6-carboxylate, formate]
IC50 (PDGFRβ [1]): 6.04 nM | recovery at 5 hr, 10 μM (PAMPA permeability assay): 56.3% | Papp at 5 hr, 10 μM (PAMPA permeability assay): 0.00653 ×10⁻⁶ cm/s | MRT ([3]; male, CD, plasma, iv): 42 min | clearance ([3]; male, CD, plasma, iv): 75 mL/min/kg | half-life ([3]; male, CD, plasma, iv): 36 min | Vd ([3]; male, CD, plasma, iv, read-out: Vss): 3.4 L/kg | Lung conc i.t./i.v. Ratio at time 0.1 h [3]: 15.5 | Lung conc i.t./i.v. Ratio at time 1.5 h [3]: 20.1 | Lung conc i.t./i.v. Ratio at time 6 h ([3]; 6 h): >42 | Lung conc i.t./i.v. Ratio at time 24 h ([3]; 24 h): >10 | i.t. BAV (%) [3, 4]: 35% | BAL % administered dose at time 0.1 h [3, 4]: 3.5% | lung/plasma conc ratio at time 0.1 h [3, 4]: 39 | concentration at 0.1 h [3, 4]: 1532 nM | BAL % administered dose at time 1.5 h [3, 4]: 0.6% | lung/plasma conc ratio at time 1.5 h [3, 4]: >265 | concentration at 1.5 h [3, 4]: 886 nM | BAL % administered dose at time 6 h [3, 5]: 0.1% | lung/plasma conc ratio at time 6 h [3, 5]: >35 | concentration at 6 h [3, 5]: 116 nM | BAL % administered dose at time 24 h [3, 6]: BQL | lung/plasma conc ratio at time 24 h [3, 6]: >8 | concentration at 24 h [3, 6]: 27 nM | BAL % administered dose at time 0.1 h [3, 7]: 0.06% | lung/plasma ratio at time 0.1 h [3, 7]: 2 | concentration at 0.1 h [3, 7]: 99 nM | BAL % administered dose at time 1.5 h [3, 7]: BQL | lung/plasma ratio at time 1.5 h [3, 7]: 12 | concentration at 1.5 h [3, 7]: 44 nM | BAL % administered dose at time 6 h [3, 8]: BQL | lung concentration (nM) at time 6 h [3, 8]: BQL | BAL % administered dose at time 24 h [3, 9]: BQL | lung concentration (nM) at time 24 h [3, 9]: BQL | Oral BAV (%) ([3]; oral dose 3 mg/kg): <7% | Cell viability at 100 nM (%) (MRC5 cells): 102.9% | Cell viability at 300 nM (%) (MRC5 cells): 97.2% | Cell viability at 1000 nM (%) (MRC5 cells): 67.5%

Ki (PDGFRβ [2]; [10]): 13 nM
SMILES: COC(=O)c1cc2c(cc1C)/C(=C(/Nc1cccc(C(=O)N(C)CCN(C)C)c1)c1ccccc1)C(=O)N2 [Example 16, (Z)-Methyl 3-(((3-((2-(dimethylamino)ethyl)(methyl)carbamoyl)phenyl)amino)(phenyl)methylene)-5-methyl-2-oxoindoline-6-carboxylate]
Cell viability at 100 nM (%) (MRC5 cells): 103.2% | Cell viability at 300 nM (%) (MRC5 cells): 104.3% | Cell viability at 1000 nM (%) (MRC5 cells): 70.6%

IC50 (PDGFRβ [1]): 22.6 nM | Ki (PDGFRβ [2]; [10]): 84.6 nM
SMILES: COC(=O)c1cc2c(cc1C)/C(=C(/Nc1ccc(C(=O)NCCN3CCC(F)(F)CC3)cc1)c1ccccc1)C(=O)N2 [Example 23, (Z)-Methyl 3-(((4-((2-(4,4-difluoropiperidin-1-yl)ethyl)carbamoyl)phenyl)amino)(phenyl)methylene)-5-methyl-2-oxoindoline-6-carboxylate]
Cell viability at 100 nM (%) (MRC5 cells): 90.7% | Cell viability at 300 nM (%) (MRC5 cells): 100.5% | Cell viability at 1000 nM (%) (MRC5 cells): 62.1%

IC50 (PDGFRβ [1]): 12.3 nM | Ki (PDGFRβ [2]; [10]): 12.7 nM
SMILES: COC(=O)c1cc2c(cc1C)/C(=C(/Nc1ccc(C(=O)NCCN3CCN(C(C)=O)CC3)cc1)c1ccccc1)C(=O)N2 [Example 24, (Z)-Methyl 3-(((4-((2-(4-acetylpiperazin-1-yl)ethyl)carbamoyl)phenyl)amino)(phenyl)methylene)-5-methyl-2-oxoindoline-6-carboxylate]
Cell viability at 100 nM (%) (MRC5 cells): 125.2% | Cell viability at 300 nM (%) (MRC5 cells): 74.4% | Cell viability at 1000 nM (%) (MRC5 cells): 45.9%

SMILES: COC(=O)c1cc2c(cc1C)/C(=C(/Nc1ccc(C(=O)NCCN3CCC(F)CC3)cc1)c1ccccc1)C(=O)N2 [Example 28, (Z)-Methyl 3-(((4-((2-(4-fluoropiperidin-1-yl)ethyl)carbamoyl)phenyl)amino)(phenyl)methylene)-5-methyl-2-oxoindoline-6-carboxylate, formate]
IC50 (PDGFRβ [1]): 51.3 nM | Ki (PDGFRβ [2]): 20 nM | Cell viability at 100 nM (%) (MRC5 cells): 149.4% | Cell viability at 300 nM (%) (MRC5 cells): 97.6% | Cell viability at 1000 nM (%) (MRC5 cells): 83.6%

IC50 (PDGFRβ [1]): 7.4 nM | Ki (PDGFRβ [2]; [10]): 10.2 nM
SMILES: COC(=O)c1cc2c(cc1C)/C(=C(/Nc1ccc(C(=O)N(C)C3CCN(CCO)CC3)cc1)c1ccccc1)C(=O)N2 [Example 41, (Z)-Methyl 3-(((4-((1-(2-hydroxyethyl)piperidin-4-yl)(methyl)carbamoyl)phenyl)amino)(phenyl)methylene)-5-methyl-2-oxoindoline-6-carboxylate, 0.2 formate]
Cell viability at 100 nM (%) (MRC5 cells): 68.5% | Cell viability at 300 nM (%) (MRC5 cells): 56.8% | Cell viability at 1000 nM (%) (MRC5 cells): 6.2%

IC50 (PDGFRβ [1]): 14.9 nM | Ki (PDGFRβ [2]; [10]): 14.4 nM
SMILES: COC(=O)c1cc2c(cc1C)/C(=C(/Nc1ccc(C(=O)NCCN3CCC(CO)CC3)cc1)c1ccccc1)C(=O)N2 [Example 42, (Z)-Methyl 3-(((4-((2-(4-(hydroxymethyl)piperidin-1-yl)ethyl)carbamoyl)phenyl)amino)(phenyl)methylene)-5-methyl-2-oxoindoline-6-carboxylate, 0.2 formate]
Cell viability at 100 nM (%) (MRC5 cells): 82.5% | Cell viability at 300 nM (%) (MRC5 cells): 83.4% | Cell viability at 1000 nM (%) (MRC5 cells): 60.7%

IC50 (PDGFRβ [1]): 2.49 nM | Ki (PDGFRβ [2]; [10]): 6.65 nM
SMILES: COC(=O)c1cc2c(cc1C)/C(=C(/Nc1ccc(C(=O)N3CCCN(CCO)CC3)cc1)c1ccccc1)C(=O)N2 [Example 46, (Z)-Methyl-3-(((4-(4-(2-hydroxyethyl)-1,4-diazepane-1-carbonyl)phenyl)amino)(phenyl)methylene)-5-methyl-2-oxoindoline-6-carboxylate]
Cell viability at 100 nM (%) (MRC5 cells): 87% | Cell viability at 300 nM (%) (MRC5 cells): 80.2% | Cell viability at 1000 nM (%) (MRC5 cells): 18.2%

IC50 (PDGFRβ [1]): 3.67 nM | Ki (PDGFRβ [2]; [10]): 98.9 nM
SMILES: COC(=O)c1cc2c(cc1C)/C(=C(/Nc1ccc(C(=O)N3CCC(C(N)=O)(N4CCCCC4)CC3)cc1)c1ccccc1)C(=O)N2 [Example 47, (Z)-Methyl 3-(((4-(4′-carbamoyl-[1,4′-bipiperidine]-1′-carbonyl)phenyl)amino)(phenyl)methylene)-5-methyl-2-oxoindoline-6-carboxylate]
Cell viability at 100 nM (%) (MRC5 cells): 143.1% | Cell viability at 300 nM (%) (MRC5 cells): 123% | Cell viability at 1000 nM (%) (MRC5 cells): 58.5%

IC50 (PDGFRβ [1]): 2.29 nM | Ki (PDGFRβ [2]; [10]): 9.49 nM
SMILES: COC(=O)c1cc2c(cc1C)/C(=C(/Nc1ccc(C(=O)N(C)[C@H]3CN(C)C[C@@H]3O)cc1)c1ccccc1)C(=O)N2 [Example 48, (Z)-Methyl 3-(((4-(((3S,4S)-4-hydroxy-1-methylpyrrolidin-3-yl)(methyl)carbamoyl)phenyl)amino)(phenyl)methylene)-5-methyl-2-oxoindoline-6-carboxylate, 0.4 formate]
Cell viability at 100 nM (%) (MRC5 cells): 84.4% | Cell viability at 300 nM (%) (MRC5 cells): 74.4% | Cell viability at 1000 nM (%) (MRC5 cells): 14.1%
